Legend:
Experiment in all cases: relative viability (nuclei count vs DMSO), 5 days (fraction); higher = more cells survive
[1] = test system: NCI-H358
In short: (§1)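 Medians of duplicate plates are given as relative viability. That measure is the nuclei count in treated wells divided by the count in vehicle wells. Counts were taken on 4× images of lung cancer cell lines in 1536-well plates, 5 days after pin-tool dosing the day after seeding with one drug alone or a fixed anchor-drug dose plus five library-drug doses (not always all listed) in √10 steps.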

[2] = test system: LOU-NH91
In short: as §1

[3] = test system: EKVX
In short: as §1

[4] = test system: NCI-H838
In short: as §1

[5] = test system: NCI-H1395
In short: as §1

[6] = test system: NCI-H2085
In short: as §1

[7] = test system: HCC-44
In short: as §1

[8] = test system: NCI-H1734
In short: as §1

[9] = test system: NCI-H1975
In short: as §1

[10] = test system: BEN
In short: as §1

[11] = test system: NCI-H1355
In short: as §1

[12] = test system: CAL-12T
In short: as §1

[13] = test system: LU99A
In short: as §1

[14] = test system: NCI-H2023
In short: as §1

[15] = test system: NCI-H1437
In short: as §1

[16] = test system: NCI-H1651
In short: as §1

[17] = test system: NCI-H441
In short: as §1

[18] = test system: NCI-H1563
In short: as §1

[19] = test system: NCI-H460
In short: as §1

[20] = test system: HCC-366
In short: as §1

[21] = test system: NCI-H1755
In short: as §1

## Oc1nc(-c2ccc(C(F)(F)F)cc2)nc2c1CSCC2 [XAV939] + C[C@]1(O)C[C@@H](c2nc(-c3ccc4ccc(-c5ccccc5)nc4c3)c3c(N)nccn32)C1 [Linsitinib] (partner 1 µM)
[1]; first compound 0.08 µM
  relative viability: 0.832
[1]; first compound 0.253 µM
  relative viability: 0.551
[1]; first compound 0.8 µM
  relative viability: 0.655
[1]; first compound 2.53 µM
  relative viability: 0.558
[2]; first compound 0.08 µM
  relative viability: 0.903
[2]; first compound 0.253 µM
  relative viability: 0.842
[2]; first compound 0.8 µM
  relative viability: 0.996
[2]; first compound 2.53 µM
  relative viability: 0.911
[3]; first compound 0.08 µM
  relative viability: 1.07
[3]; first compound 0.253 µM
  relative viability: 0.776
[3]; first compound 0.8 µM
  relative viability: 0.831
[3]; first compound 2.53 µM
  relative viability: 0.623
[4]; first compound 0.08 µM
  relative viability: 1.02
[4]; first compound 0.253 µM
  relative viability: 0.901
[4]; first compound 0.8 µM
  relative viability: 0.839
[4]; first compound 2.53 µM
  relative viability: 0.719
[5]; first compound 0.08 µM
  relative viability: 1.09
[5]; first compound 0.253 µM
  relative viability: 1.04
[5]; first compound 0.8 µM
  relative viability: 1.11
[5]; first compound 2.53 µM
  relative viability: 0.974
[6]; first compound 0.08 µM
  relative viability: 0.811
[6]; first compound 0.253 µM
  relative viability: 0.771
[6]; first compound 0.8 µM
  relative viability: 0.91
[6]; first compound 2.53 µM
  relative viability: 0.888
[7]; first compound 0.08 µM
  relative viability: 0.789
[7]; first compound 0.253 µM
  relative viability: 0.673
[7]; first compound 0.8 µM
  relative viability: 0.659
[7]; first compound 2.53 µM
  relative viability: 0.651
[8]; first compound 0.08 µM
  relative viability: 0.841
[8]; first compound 0.253 µM
  relative viability: 0.853
[8]; first compound 0.8 µM
  relative viability: 0.961
[8]; first compound 2.53 µM
  relative viability: 0.709
[9]; first compound 0.08 µM
  relative viability: 0.854
[9]; first compound 0.253 µM
  relative viability: 0.711
[9]; first compound 0.8 µM
  relative viability: 0.97
[9]; first compound 2.53 µM
  relative viability: 0.673
[10]; first compound 0.08 µM
  relative viability: 1.17
[10]; first compound 0.253 µM
  relative viability: 0.894
[10]; first compound 0.8 µM
  relative viability: 0.934
[11]; first compound 0.08 µM
  relative viability: 0.867
[11]; first compound 0.253 µM
  relative viability: 0.783
[11]; first compound 0.8 µM
  relative viability: 0.82
[11]; first compound 2.53 µM
  relative viability: 0.666
[12]; first compound 0.08 µM
  relative viability: 0.87
[12]; first compound 0.253 µM
  relative viability: 0.809
[12]; first compound 0.8 µM
  relative viability: 0.667
[12]; first compound 2.53 µM
  relative viability: 0.667
[13]; first compound 0.08 µM
  relative viability: 0.556
[13]; first compound 0.253 µM
  relative viability: 0.446
[13]; first compound 0.8 µM
  relative viability: 0.505
[13]; first compound 2.53 µM
  relative viability: 0.44
[14]; first compound 0.08 µM
  relative viability: 0.699
[14]; first compound 0.253 µM
  relative viability: 0.626
[14]; first compound 0.8 µM
  relative viability: 0.625
[14]; first compound 2.53 µM
  relative viability: 0.447
[15]; first compound 0.08 µM
  relative viability: 1.21
[15]; first compound 0.253 µM
  relative viability: 0.878
[15]; first compound 0.8 µM
  relative viability: 0.873
[15]; first compound 2.53 µM
  relative viability: 0.477
[16]; first compound 0.08 µM
  relative viability: 1.01
[16]; first compound 0.253 µM
  relative viability: 0.799
[16]; first compound 0.8 µM
  relative viability: 0.915
[16]; first compound 2.53 µM
  relative viability: 0.875
[17]; first compound 0.08 µM
  relative viability: 0.675
[17]; first compound 0.253 µM
  relative viability: 0.413
[17]; first compound 0.8 µM
  relative viability: 0.507
[17]; first compound 2.53 µM
  relative viability: 0.507
[18]; first compound 0.08 µM
  relative viability: 1.2
[18]; first compound 0.253 µM
  relative viability: 1.01
[18]; first compound 0.8 µM
  relative viability: 1.07
[18]; first compound 2.53 µM
  relative viability: 0.871
[19]; first compound 0.08 µM
  relative viability: 0.988
[19]; first compound 0.253 µM
  relative viability: 0.651
[19]; first compound 0.8 µM
  relative viability: 0.959
[19]; first compound 2.53 µM
  relative viability: 0.778
[20]; first compound 0.08 µM
  relative viability: 0.626
[20]; first compound 0.253 µM
  relative viability: 0.5
[20]; first compound 0.8 µM
  relative viability: 0.605
[20]; first compound 2.53 µM
  relative viability: 0.596
[21]; first compound 0.08 µM
  relative viability: 0.975
[21]; first compound 0.253 µM
  relative viability: 0.865
[21]; first compound 0.8 µM
  relative viability: 0.969
[21]; first compound 2.53 µM
  relative viability: 0.921
